Publication PMC12439166, “Dietary flavonoids form supramolecular assemblies, alter biochemistry, and enhance cell resilience” (Frontiers in Nutrition, 2025)

Target: T1, Lysine demethylase 4C (KDM4C) (Homo sapiens, UniProt Q9H3R0)
T1 sequence (Q9H3R0 1-1056): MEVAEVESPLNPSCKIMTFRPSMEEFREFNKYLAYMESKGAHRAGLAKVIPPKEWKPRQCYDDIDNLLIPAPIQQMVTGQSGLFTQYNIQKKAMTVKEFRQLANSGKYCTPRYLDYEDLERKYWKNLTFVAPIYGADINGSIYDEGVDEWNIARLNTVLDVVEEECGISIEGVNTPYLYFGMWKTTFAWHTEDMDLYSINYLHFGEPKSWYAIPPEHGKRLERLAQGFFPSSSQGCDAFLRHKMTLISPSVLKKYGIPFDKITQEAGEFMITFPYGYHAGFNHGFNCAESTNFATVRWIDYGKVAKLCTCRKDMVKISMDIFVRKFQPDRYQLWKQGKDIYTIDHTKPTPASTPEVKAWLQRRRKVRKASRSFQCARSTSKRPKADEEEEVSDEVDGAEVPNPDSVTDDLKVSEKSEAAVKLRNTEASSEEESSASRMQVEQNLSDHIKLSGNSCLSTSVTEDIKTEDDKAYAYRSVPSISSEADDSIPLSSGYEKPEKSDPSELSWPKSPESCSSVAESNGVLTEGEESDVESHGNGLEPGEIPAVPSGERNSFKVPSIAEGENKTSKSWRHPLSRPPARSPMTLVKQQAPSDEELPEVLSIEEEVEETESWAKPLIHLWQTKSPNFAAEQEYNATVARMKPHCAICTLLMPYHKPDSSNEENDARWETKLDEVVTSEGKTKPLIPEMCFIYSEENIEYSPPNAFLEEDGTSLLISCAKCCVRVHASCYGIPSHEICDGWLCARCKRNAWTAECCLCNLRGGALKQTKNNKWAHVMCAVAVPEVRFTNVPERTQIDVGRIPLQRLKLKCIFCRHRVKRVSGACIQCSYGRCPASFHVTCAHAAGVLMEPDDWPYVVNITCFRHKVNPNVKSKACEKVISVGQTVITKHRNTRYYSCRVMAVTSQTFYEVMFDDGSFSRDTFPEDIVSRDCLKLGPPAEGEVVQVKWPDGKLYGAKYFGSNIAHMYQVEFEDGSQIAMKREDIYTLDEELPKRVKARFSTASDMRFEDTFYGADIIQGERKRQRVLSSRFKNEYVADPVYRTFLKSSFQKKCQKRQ
Assay: Enzyme activity assay (SAMDI-MS), KDM4C
Format: biochemical
Conditions: 10 concentrations, 5 nM to 100 μM, compounds incubated with enzyme 30 min, result in words
Protocol: Enzyme screens were performed by SAMDI Tech (contract research organization); enzyme assays were performed in a 20 μL volume in 384-well low-volume polypropylene microtiter plates (Greiner Bio-One) at room temperature. The enzymes [Arginase 1 (ARG1), Lysine demethylase 4C (KDM4C), MAP/microtubule affinity-regulating kinase 4 (MARK4), Histone-Lysine N-methyltransferase (NSD2), Tyrosine-protein phosphatase non-receptor type 1 (PTP1B), and Sirtuin-3 (SIRT3)] were incubated with compounds for 30 min prior to initiation of the reaction by the addition of substrate and cofactors (if required). Reactions were quenched by the addition of 0.5% formic acid (final) with subsequent neutralization using 1% sodium bicarbonate (final). For SAMDI MS analysis, 2 μL of each reaction was transferred using a 384-channel automated liquid handler to SAMDI biochip arrays functionalized with a neutravidin-presenting self-assembled monolayer. The preparation of SAMDI biochip arrays has been previously described ([41], [42], [49]). The SAMDI arrays were incubated for 1 h in a humidified chamber to allow specific immobilization of the biotinylated substrates and products; they were then purified by washing with ultrafiltered water (50 μL/spot) and dried with compressed air. A matrix comprising α-Cyano-4-hydroxycinnamic acid in 80% acetonitrile: 20% aqueous ammonium citrate (10 mg/mL final) was applied in an automated format by dispensing 50 nL to each spot in the array. SAMDI MS was performed using reflector positive mode on an AB Sciex TOF-TOF 5800 System (AB Sciex, Framingham, MA) with 400 shots/spot analyzed in a random raster sampling. For data analysis, the area under the curves (AUCs) for the product peak and substrate peak were calculated using the TOF/TOF Series Explorer (AB Sciex), and the amount of product formed was calculated using the equation AUC product / (AUC product + AUC Substrate). Negative controls were pre-quenched with 0.5% formic acid (final). Lysozyme assay was performed using the manufacturer’s instructions (Biovision Lysozyme inhibitor screening kit K237). Flavonoids were acquired from Sigma-Aldrich and Seleckchem.
IC50 values of enzyme inhibition. Inhibition of the enzymes was measured at 10 concentration values in the range of 5 nM to 100 μM for each compound and enzyme, with two technical replicates; the percent inhibition values were determined by SAMDI software. Sigmoidal curves were fitted to the percent inhibition vs log10 (concentration) series, and IC50 values were determined at the crossing point of 50 % inhibition. Manual verification of the fits and the IC50 values was performed. The resulting IC50 values fell into the following categories: (a) within the assayed range of 5nM to 100μM (26 % of fits), (b) IC50 could be extrapolated, IC50 > 100μM (12 % of fits), or (c) fitting was not possible because all values were at baseline (62 % of fits). Compound efficacy ranking. First, for each IC50 value per compound and enzyme, a Z-score was calculated based on the log10 (IC50) value and that of the compounds that produced a successful readout for enzyme i , according to Equation 1: […]

| SMILES | inhibition of enzyme activity, KDM4C | inhibition of enzyme activity, KDM4C (listed as Quercetin) | inhibition of enzyme activity, KDM4C (listed as Quercitin) |
| --- | --- | --- | --- |
| O=c1c(O[C@@H]2O[C@H](CO)[C@@H](O)[C@H](O)[C@H]2O)c(-c2ccc(O)c(O)c2)oc2cc(O)cc(O)c12 [isoquercitrin] | blocked |  |  |
| O=c1c(O)c(-c2ccc(O)c(O)c2)oc2cc(O)cc(O)c12 [quercetin] | blocked | inhibited | concentration-dependent inhibition |
| C[C@@H]1O[C@@H](Oc2c(-c3ccc(O)c(O)c3)oc3cc(O)cc(O)c3c2=O)[C@H](O)[C@H](O)[C@H]1O [quercitrin] | blocked |  |  |
